pIC50: −log10 of the molar value.
Assays:
Type in all cases: functional, cell-based
HepG2 = assay: Cytotoxicity against human HepG2 cells by MTT assay
PC-3 = assay: Cytotoxicity against human PC3 cells by MTT assay
MCF7 = assay: Cytotoxicity against human MCF7 cells by MTT assay
BGC-823 = assay: Cytotoxicity against human BGC823 cells by MTT assay
A549 = assay: Cytotoxicity against human A549 cells by MTT assay
[1] = Cytotoxicity against human A375-S2 cells by MTT assay
HT-1080 = assay: Cytotoxicity against human HT1080 cells by MTT assay
[2] = Cytotoxicity against human MDA231 cells by MTT assay; settings: MDA-MB-231
HEp-2 = assay: Cytotoxicity against human Hep2 cells by MTT assay
HeLa = assay: Cytotoxicity against human HeLa cells by MTT assay

Measured: pIC50

C/C=C(/C)C(=O)O[C@@H]1[C@@H](O)[C@H](O[C@H]2CC[C@]3(C)[C@H]4CC=C5[C@@H]6CC(C)(C)[C@@H](O)[C@H](O)[C@]6(CO[C@@H]6O[C@H](CO[C@@H]7O[C@H](CO)[C@@H](O)[C@H](O)[C@H]7O)[C@@H](O)[C@H](O)[C@H]6O[C@@H]6O[C@H](CO)[C@@H](O)[C@H](O)[C@H]6O)CC[C@@]5(C)[C@]4(C)CC[C@H]3C2(C)C)O[C@H](CO[C@@H]2O[C@H](CO)[C@@H](O)[C@H](O)[C@H]2O)[C@H]1OC(C)=O [SORBIFOLIASIDE F]
< 4.00: HepG2 | PC-3 | MCF7 | BGC-823 | A549 | [1] | HT-1080 | [2] | HEp-2 | HeLa

C[C@@H]1O[C@@H](O[C@H]2[C@H](OC[C@@]34CC[C@]5(C)C(=CC[C@@H]6[C@@]7(C)CC[C@H](O[C@@H]8O[C@H](CO[C@@H]9O[C@H](CO)[C@@H](O)[C@H](O)[C@H]9O)[C@@H](O)[C@H](O)[C@H]8O)C(C)(C)[C@@H]7CC[C@]65C)[C@@H]3CC(C)(C)[C@@H](O)[C@@H]4O)O[C@H](CO[C@@H]3O[C@H](CO)[C@@H](O)[C@H](O)[C@H]3O)[C@@H](O)[C@@H]2O)[C@H](O)[C@H](O)[C@H]1O [XANIFOLIA O54]
< 4.00: HepG2 | PC-3 | MCF7 | BGC-823 | A549 | [1] | HT-1080 | [2] | HEp-2 | HeLa

Source: ChEMBL document CHEMBL2057081, “Triterpenoid saponins from Xanthoceras sorbifolia Bunge and their inhibitory activity on human cancer cell lines” (Bioorg Med Chem Lett, 2012)
